Numbers after ± are expanded uncertainties.
Test: mn = molality of the nth substance listed, in mol/kg
Conditions: 101 kPa, Liquid, Vibrating tube method

CC[C@H](C)[C@H](NC(=O)CN)C(=O)NCC(=O)O [glycyl-L-isoleucylglycine] + O
Conditions	mass density [kg/m3]
288.15 K, m1 = 0.0284	1001.07 ± 0.086
288.15 K, m1 = 0.03948	1001.83 ± 0.086
288.15 K, m1 = 0.04918	1002.5 ± 0.087
288.15 K, m1 = 0.05715	1003.04 ± 0.086
288.15 K, m1 = 0.06935	1003.87 ± 0.086
288.15 K, m1 = 0.07955	1004.56 ± 0.086
288.15 K, m1 = 0.08916	1005.21 ± 0.086
288.15 K, m1 = 0.1012	1006.02 ± 0.087
303.15 K, m1 = 0.01893	996.925 ± 0.086
303.15 K, m1 = 0.0328	997.846 ± 0.09
303.15 K, m1 = 0.04344	998.561 ± 0.092
303.15 K, m1 = 0.04827	998.872 ± 0.085
303.15 K, m1 = 0.05907	999.58 ± 0.084
303.15 K, m1 = 0.06849	1000.21 ± 0.097
303.15 K, m1 = 0.07945	1000.91 ± 0.086
303.15 K, m1 = 0.09989	1002.23 ± 0.083
313.15 K, m1 = 0.02969	994.182 ± 0.086
313.15 K, m1 = 0.04028	994.873 ± 0.085
313.15 K, m1 = 0.05061	995.543 ± 0.085
313.15 K, m1 = 0.05971	996.132 ± 0.084
313.15 K, m1 = 0.07966	997.418 ± 0.084

CC(C)C[C@H](NC(=O)CN)C(=O)NCC(=O)O [glycyl-L-leucylglycine] + O
Conditions	mass density [kg/m3]
288.15 K, m1 = 0.03052	1001.2 ± 0.085
288.15 K, m1 = 0.04107	1001.91 ± 0.086
288.15 K, m1 = 0.05063	1002.57 ± 0.085
288.15 K, m1 = 0.06015	1003.2 ± 0.086
288.15 K, m1 = 0.07034	1003.9 ± 0.086
288.15 K, m1 = 0.08092	1004.6 ± 0.085
288.15 K, m1 = 0.09106	1005.27 ± 0.085
288.15 K, m1 = 0.1008	1005.92 ± 0.086
298.15 K, m1 = 0.01963	998.372 ± 0.085
298.15 K, m1 = 0.03198	999.201 ± 0.083
298.15 K, m1 = 0.04637	1000.16 ± 0.082
298.15 K, m1 = 0.0606	1001.11 ± 0.085
298.15 K, m1 = 0.07265	1001.9 ± 0.087
298.15 K, m1 = 0.08576	1002.77 ± 0.084
298.15 K, m1 = 0.09698	1003.5 ± 0.073
303.15 K, m1 = 0.01876	996.907 ± 0.09
303.15 K, m1 = 0.03847	998.204 ± 0.084
303.15 K, m1 = 0.04881	998.896 ± 0.085
303.15 K, m1 = 0.05715	999.436 ± 0.083
303.15 K, m1 = 0.06905	1000.22 ± 0.081
303.15 K, m1 = 0.07699	1000.73 ± 0.087
303.15 K, m1 = 0.08729	1001.4 ± 0.085
303.15 K, m1 = 0.09709	1002.03 ± 0.073
313.15 K, m1 = 0.01926	993.479 ± 0.086
313.15 K, m1 = 0.02873	994.105 ± 0.085
313.15 K, m1 = 0.04912	995.406 ± 0.085
313.15 K, m1 = 0.06755	996.608 ± 0.084
313.15 K, m1 = 0.07763	997.232 ± 0.083
313.15 K, m1 = 0.0869	997.826 ± 0.083
313.15 K, m1 = 0.1005	998.668 ± 0.082

CSCC[C@H](NC(=O)CN)C(=O)NCC(=O)O [glycyl-L-methionylglycine] + O
Conditions	mass density [kg/m3]
288.15 K, m1 = 0.02065	1000.96 ± 0.1
288.15 K, m1 = 0.02481	1001.33 ± 0.1
288.15 K, m1 = 0.03005	1001.79 ± 0.1
288.15 K, m1 = 0.04038	1002.71 ± 0.1
288.15 K, m1 = 0.05024	1003.58 ± 0.1
288.15 K, m1 = 0.06017	1004.46 ± 0.1
288.15 K, m1 = 0.07183	1005.48 ± 0.1
288.15 K, m1 = 0.07978	1006.18 ± 0.1
288.15 K, m1 = 0.0913	1007.18 ± 0.11
303.15 K, m1 = 0.03024	998.275 ± 0.14
303.15 K, m1 = 0.03988	999.096 ± 0.11
303.15 K, m1 = 0.05998	1000.82 ± 0.096
303.15 K, m1 = 0.06988	1001.65 ± 0.097
303.15 K, m1 = 0.07911	1002.43 ± 0.099
303.15 K, m1 = 0.08988	1003.32 ± 0.11
303.15 K, m1 = 0.1012	1004.27 ± 0.1
313.15 K, m1 = 0.0199	993.923 ± 0.1
313.15 K, m1 = 0.03002	994.787 ± 0.1
313.15 K, m1 = 0.04003	995.629 ± 0.1
313.15 K, m1 = 0.05041	996.504 ± 0.1
313.15 K, m1 = 0.061	997.393 ± 0.1
313.15 K, m1 = 0.07039	998.173 ± 0.1
313.15 K, m1 = 0.08051	999.015 ± 0.1

NCC(=O)N[C@@H](Cc1ccccc1)C(=O)NCC(=O)O [glycyl-L-phenylalanylglycine] + O
Conditions	mass density [kg/m3]
288.15 K, m1 = 0.005986	999.628 ± 0.1
288.15 K, m1 = 0.008946	999.888 ± 0.1
288.15 K, m1 = 0.01159	1000.12 ± 0.1
288.15 K, m1 = 0.01398	1000.33 ± 0.1
288.15 K, m1 = 0.01783	1000.66 ± 0.1
288.15 K, m1 = 0.02035	1000.89 ± 0.1
288.15 K, m1 = 0.02318	1001.13 ± 0.1
288.15 K, m1 = 0.0251	1001.3 ± 0.1
303.15 K, m1 = 0.00896	996.415 ± 0.27
303.15 K, m1 = 0.01148	996.632 ± 0.088
303.15 K, m1 = 0.01353	996.804 ± 0.084
303.15 K, m1 = 0.01556	996.971 ± 0.15
303.15 K, m1 = 0.01814	997.19 ± 0.11
303.15 K, m1 = 0.01958	997.317 ± 0.082
303.15 K, m1 = 0.02246	997.559 ± 0.056
303.15 K, m1 = 0.02447	997.735 ± 0.15
313.15 K, m1 = 0.004093	992.563 ± 0.1
313.15 K, m1 = 0.00896	992.969 ± 0.1
313.15 K, m1 = 0.01149	993.182 ± 0.1
313.15 K, m1 = 0.01353	993.351 ± 0.099
313.15 K, m1 = 0.01556	993.516 ± 0.099
313.15 K, m1 = 0.01761	993.683 ± 0.1
313.15 K, m1 = 0.02033	993.916 ± 0.1
313.15 K, m1 = 0.02333	994.159 ± 0.1
313.15 K, m1 = 0.02522	994.324 ± 0.1

NCC(=O)N1CCC[C@H]1C(=O)NCC(=O)O [glycyl-L-prolylglycine] + O
Conditions	mass density [kg/m3]
288.15 K, m1 = 0.02017	1000.83 ± 0.1
288.15 K, m1 = 0.0252	1001.26 ± 0.1
288.15 K, m1 = 0.02989	1001.66 ± 0.1
288.15 K, m1 = 0.0347	1002.07 ± 0.1
288.15 K, m1 = 0.04017	1002.54 ± 0.1
288.15 K, m1 = 0.04486	1002.93 ± 0.1
288.15 K, m1 = 0.04775	1003.19 ± 0.1
288.15 K, m1 = 0.05375	1003.69 ± 0.1
303.15 K, m1 = 0.02292	997.573 ± 0.099
303.15 K, m1 = 0.02697	997.912 ± 0.11
303.15 K, m1 = 0.03212	998.333 ± 0.11
303.15 K, m1 = 0.03677	998.728 ± 0.11
303.15 K, m1 = 0.04242	999.195 ± 0.1
303.15 K, m1 = 0.04731	999.598 ± 0.096
303.15 K, m1 = 0.05219	1000.01 ± 0.053
313.15 K, m1 = 0.02757	994.502 ± 0.098
313.15 K, m1 = 0.03212	994.873 ± 0.099
313.15 K, m1 = 0.03715	995.286 ± 0.099
313.15 K, m1 = 0.04242	995.724 ± 0.098
313.15 K, m1 = 0.04731	996.116 ± 0.098
313.15 K, m1 = 0.05169	996.482 ± 0.1

CC(C)[C@H](NC(=O)CN)C(=O)NCC(=O)O [glycyl-L-valylglycine] + O
Conditions	mass density [kg/m3]
288.15 K, m1 = 0.01862	1000.45 ± 0.089
288.15 K, m1 = 0.02808	1001.13 ± 0.089
288.15 K, m1 = 0.03769	1001.83 ± 0.089
288.15 K, m1 = 0.04662	1002.47 ± 0.089
288.15 K, m1 = 0.05168	1002.82 ± 0.088
288.15 K, m1 = 0.05581	1003.11 ± 0.089
288.15 K, m1 = 0.06152	1003.53 ± 0.089
288.15 K, m1 = 0.07369	1004.39 ± 0.089
288.15 K, m1 = 0.08031	1004.86 ± 0.089
303.15 K, m1 = 0.02786	997.6 ± 0.13
303.15 K, m1 = 0.0373	998.253 ± 0.086
303.15 K, m1 = 0.04619	998.869 ± 0.1
303.15 K, m1 = 0.05567	999.521 ± 0.086
303.15 K, m1 = 0.06481	1000.14 ± 0.091
303.15 K, m1 = 0.07464	1000.82 ± 0.087
303.15 K, m1 = 0.08365	1001.43 ± 0.093
303.15 K, m1 = 0.09397	1002.14 ± 0.087
313.15 K, m1 = 0.02103	993.668 ± 0.088
313.15 K, m1 = 0.02584	993.998 ± 0.088
313.15 K, m1 = 0.03709	994.764 ± 0.087
313.15 K, m1 = 0.05558	996.017 ± 0.087
313.15 K, m1 = 0.06483	996.652 ± 0.087
313.15 K, m1 = 0.0741	997.273 ± 0.087
313.15 K, m1 = 0.08323	997.9 ± 0.086
313.15 K, m1 = 0.09182	998.467 ± 0.085

Source: the NIST ThermoML archive (doi:10.1016/j.jct.2009.05.011)
